Assays:
[1] = tested on: ganglioside-bound sialic acid in corpus callosum and cerebellum; assay: Ganglioside-bound sialic acid in brain regions of suckling pigs fed sialyllactose diets (periodic acid-resorcinol reaction); format: in vivo; details: diet supplemented with 4 g/L, fed 21 days
Text: This study sought to determine whether administration of certain isomers of sialyllactose could increase or enrich sialic acid in the brain tissues of neonatal pigs. Indeed, accumulation of sialic acid in the brain during neonatal development is associated with increased cognitive functioning. Further, sialic acid (SA) is a key component of human milk oligosaccharides and neural tissues. SA accumulates in the brain rapidly during neonatal development and is thought to play an important role in brain development. […] Piglets readily consumed the formula, grew at normal rates and remained clinically healthy throughout the experiment.
After 21 days, the pigs were euthanized and the left hemisphere of the brain was dissected into cerebrum, cerebellum, corpus callosum, and hippocampus regions. […] The lipid- and protein-bound sialic acid contents from each sample were determined using a modified periodic acid-resorcinol reaction. Free sialic acid was calculated by difference. Briefly, the sialic from the protein and ganglioside fractions was first oxidized using the periodic acid reagent, which released the oxidized sialic-aldehyde derivative quantitatively. The released sialic derivative was measured colorimetrically using the resorcinol-HCl reagent.

[2] = tested on: microbial taxa of the proximal and distal colon; assay: Gut microbiome of suckling pigs, 16S rDNA Illumina sequencing of colon digesta; format: in vivo; details: 21 days
Text: This study sought to determine whether administration of certain isomers of sialyllactose could modulate the microbiome of developing neonatal pigs, i.e. suckling pigs. Indeed, selectively promoting beneficial gut microbiota in preterm and term infants, toddlers, and children may provide long-term health benefits, including neuronal benefits. Briefly, day-old pigs were randomized among 6 diets; (1) control diet, (2) diet supplemented with 2 g/L of 3′-sialyllactose, (3) diet supplemented with 4 g/L of 3′-sialyllactose, (4) diet supplemented with 2 g/L of 6′-sialyllactose, (5) diet supplement with 4 g/L of 6′-sialyllactose, and (6) 2 g/L PDX and 2 g/L GOS. The pigs were fed three times per day for 21 days.
Pigs were euthanized and intestinal digesta were analyzed from the proximal and distal colon. The microbiome analysis was performed via 16S rDNA Illumina sequencing. Briefly, DNA was extracted from digesta using the UltraClean Tissue and Cells DNA Isolation Kit (MoBio). The DNA was then cleaned using PowerClean DNA Clean-Up Kit (ThermoFisher Scientific, Waltham, Mass.) and quantified with the Qubit Quant-iT dsDNA Broad- Range Kit (MoBio Laboratories, Carlsbad, Calif.). The V4 region of 16S ribosomal RNA was amplified using primers 515F (5#-GTGCCAGCMGCCGCGGTAA-3#) and 806R (5#-[…]-3#). Resulting PCR products were sequenced using Illumina MiSeq paired-end technology. High-quality sequences were searched against Greengenes database and then clustered at 97% sequence identity to form operational taxonomic units (OTUs) and assigned taxonomic classification. Similarity between microbial communities was assessed using the Bray-Curtis distance metric and then visualized using principal coordinates analysis. To test the community differences between microbiota between all groups of samples, we used the Adonis function. Because all genera were considered in the test, the Bonferroni multiple comparison correction was applied.

[3] = tested on: heat shock protein 72 (Hsp72); assay: Liver Hsp72 after inescapable tail shock stress in diet-fed rats; format: in vivo, male F344 rats; details: diet for 4 weeks, after stressor exposure
Text: This study sought to determine whether the administration of PDX, GOS, and lactoferrin could modulate stress-evoked responses and the concentration of inflammatory cytokines and chemokines in blood or tissue. Briefly, male F344 rats were pair-housed in a barrier facility and fed experimental or control diet for 4 weeks. The diet formulations were as follows: (1) control, (2) diet supplemented with lactoferrin (LAC), (3) diet supplemented with GOS and PDX, and (4) diet supplemented with GOS, PDX, and Lactoferrin.
The rats were pair housed in standard Nalgene Plexiglas cages (45 cm×25.2 cm×14.7 cm) and had ad libitum access to food and water for the duration of the experimental procedures. Food consumption was monitored three times per week by weighing the chow pellets within each food hopper. Following 4 weeks on the diets, rats were exposed to inescapable (IS) or remained within their home cage undisturbed (home cage controls; HCC). IS consisted of 100, 1.5 mA inescapable tail shocks administered at variable intervals over a period of approximately 2 hours. Rats exposed to IS were restrained in Broome-style Plexiglas tubes (23.4 cm in length and 7.0 cm in diameter) with their tails exposed for electrode attachment.
Furthermore, in the same study heat shock protein 72 (Hsp72) was measured in the liver. […]

[4] = supplemented diet, colon digesta

Molecule: CC(=O)N[C@H]1[C@H]([C@H](O)[C@H](O)CO)O[C@@](O[C@H]2[C@@H](O)[C@@H](CO)O[C@@H](O[C@H]3[C@H](O)[C@@H](O)C(O)O[C@@H]3CO)[C@@H]2O)(C(=O)O)C[C@@H]1O (stereo partly shown) [3′-sialyllactose]
- increase of ganglioside-bound sialic acid in the cerebellum compared to control pigs [1]: over 10%

Molecule: CC(=O)N[C@H]1[C@H]([C@H](O)[C@H](O)CO)O[C@@](OC[C@H]2O[C@@H](O[C@H]3[C@H](O)[C@@H](O)[C@H](O)O[C@@H]3CO)[C@H](O)[C@@H](O)[C@H]2O)(C(=O)O)C[C@@H]1O [6′-sialyllactose]
- bacterial taxa of Collinsella aerofaciens, Ruminococcus, Faecalibacterium and Prevotella ([2]; diet supplemented with 4 g/L, compared to the control diet): increase
- microbiome difference versus control diet ([2]; diet supplemented with 4 g/L, proximal and distal colon): statistically significant microbiome difference
- bacterial taxa belonging to the phyla Actinobacteria and Bacteroidetes ([2]; diet supplemented with 4 g/L, versus control diet): statistically significant increase
- taxa of the family Enterobacteriaceae and Enterococaceae, fold lower than in the control diet [2, 4]: 2.3 fold
- taxa of the family Lachnospiraceael and order Lactobacillales, fold lower than in the control diet [2, 4]: 4 fold

Molecule: lactoferrin
- effect of stress on liver Hsp72 expression [3]: reduction in the effect of stress
